Values of other authors in patent US20220361462A1, “ANIMAL MODEL FOR NEURODEGENERATIVE DISORDERS” (NEURO-BIO LTD, priority 2019, published 2022).
No end group written: not given here.

System: cell lines
Conditions: previously shown by the inventors

## NBP-14: candidate modulator of the α7-nAChR, the cyclized form of T14, cyclic SEQ ID No:4 (AEFHRWSSYMVHWK; not fully specified; also: cyclised, mode not given here; listed as Homo sapiens)
  effect on AD-like phenotype promoted by AChE-derived peptide on cell lines: blocked
